Test results reported in patent US10125075B2, “P-toluic acid production method” (TORAY INDUSTRIES, INC., priority 2015, dated 2018).
Converted amounts (≈) assume the structure as drawn. Blank lines part the entries; values can stand above or below the compound they belong to.

What was measured:
physchem = conditions: 25 °C, pH 7, aqueous buffer
solubility in water = conditions: 25 °C
[1] = pH 7, 25° C.; 'known to be'; cited from earlier work

Structure (SMILES): CC1C(O)C=C(C(=O)O)CC1O (stereo not shown) [Compound (1)]
solubility (physchem): ≥ 50 mg/mL

solubility (solubility in water; pH 7, aqueous buffer): ≥ 50 mg/mL
Structure (SMILES): CC1C(O)CC(O)(C(=O)O)CC1O (stereo not shown) [Compound (2)]

solubility (solubility in water; pH 0, aqueous buffer): ≤ 0.1 mg/mL
Structure (SMILES): Cc1ccc(C(=O)O)cc1 [p-toluic acid]
solubility in water [1]: 0.3 mg/mL (≈ 2.2 mM)
